# According to patent publication US20160263169A1, “COMPOSITION COMPRISING AN EXTRACT OF COMBINED HERB CONSISTING OF HEAT PROCESSED GINSENG, HOUTTUYNIAE HERBA, PERILLA LEAF AND TEA LEAF OR THE PROCESSED EXTRACT THEREOF AS AN ACTIVE INGREDIENT SHOWING HAIR-STIMULATING ACTIVITY AND PREVENTING ACTIVITY FROM HAIR LOSS, AND THE USE THEREOF” (GINSENG SCIENCE INC., priority 2015, published 2016):
# Test system: C57BL/6 mouse
# Experiment: Promoting effect on hair growth (hair-regrown area/shaved area) in shaved C57BL/6 mouse
# Format: in vivo
# Conditions: 2.5 mg spread on the back of mouse once a day
# Description: 6 weeks-old mouse (C57BL/6, 18-20 g, at the beginning of catagen, Orient Bio Inc. Seoul, Korea) was accustomed to the breeding environment for 1 week and anesthetized intramuscularly with an anesthetizer (2.5 mg/mouse, Ketamine, rompun, Bayer Korea Inc.). The back-hair of anesthetized mouse was removed by a grainer and the mice were divided into four groups consisting of 10 mice, respectively, i.e., (1) negative control group: treatment group with only solvent, (2) positive control group: treatment group with Minoxidil (0.5%, w/w), (3) comparative test group: treatment group with the extract prepared in Comparative Example 1 dissolved in adjuvant in a dose dependent manner, (4) test sample group: treatment group with the extract prepared in Examples dissolved in adjuvant in a dose dependent manner. 2.5 mg of the test samples was spread on the back of mouse once a day for 20 days.
# The ratio of hair-regrown area/shaved area was quantitatively analyzed by image analyzer (Image-Pro, USA) after shooting the hair-grown area with digital camera (Canon, Japan) and the test result was scored to 5 scores, i.e., score 0: ineffective; score 1: merely effective; score 2: favorably effective; score 3; potently effective; score 4; most potently effective as shown in Table 2.
smiles,measurement,setting,value
"Nc1cc(N2CCCCC2)nc(N)[n+]1[O-] [Positive control, Minoxidil]",Criteria,5th day,IE (Ineffective (IE))
same,Hair growth ratio,5th day,14%
same,Score,5th day,0 (0-20%)
same,Criteria,10th day,FE (favorably effective (FE))
same,Hair growth ratio,10th day,42%
same,Score,10th day,2 (40-60%)
same,Criteria,15th day,PE (potently effective (PE))
same,Hair growth ratio,15th day,62%
same,Score,15th day,3 (60-70%)
same,Criteria,20th day,PE (potently effective (PE))
same,Hair growth ratio,20th day,68%
same,Score,20th day,3 (60-70%)
